Data published in US8030043B2, “β-galactoside-α2,3-sialyltransferase, a gene encoding thereof, and a method for producing thereof” (Japan Tobacco Inc., priority 2005, dated 2011).

Columns and labels:
[1] = test system: FAJ-N1C0 recombinant β-galactoside-α2,3-sialyltransferase; experiment: Acceptor substrate specificity of recombinant β-galactoside-α2,3-sialyltransferase (mono-, disaccharides); assay type: biochemical, Vibrio sp.; design: FAJ-N1C0 Sialyltransferase activity Relative activity (%): tested at 42 mM; conditions: 20° C., 14 hours; for FAJ-N1C0 Sialyltransferase activity: Table 16: 1 μmol acceptor, pH 5.0, about 2.5 mU enzyme; for FAJ-N1C0 Sialyltransferase activity Relative activity (%): Table 16: activity toward lactose set to 100
Source text: (§1) Cell homogenates prepared from E. coli cells introduced with the third clone of ISH467-N2C0, the first clone of ISH224-N1C0 and the first clone of FAJ-N1C0 were each purified by ion exchange chromatography and hydroxyapatite chromatography to give an electrophoretically single band. The thus purified β-galactoside-α2,3-sialyltransferases were used in the following experiment in order to examine the presence or absence of sialyltransferase activity toward various monosaccharides, disaccharides and trisaccharides.
(§2) A reaction solution (24 μl) was prepared to contain CMP-^14C-NeuAc-containing CMP-NeuAc as a glycosyl donor substrate ([…], final concentration in the reaction solution: […]), any of various glycosyl acceptor substrates dissolved in 20 mM cacodylate buffer (pH 5.0) (1 μmol, final concentration in the reaction solution: 42 mM), sialyltransferase (in an amount as indicated in the footnotes of the tables below) and NaCl (final concentration in the reaction solution: 500 mM), and reacted under conditions as indicated in the footnotes of the tables below. The monosaccharides used as glycosyl acceptor substrates were the following 10 types: methyl-α-D-galactopyranoside (Gal-α-OMe), methyl-(β-D-galactopyranoside (Gal-β-OMe), methyl-α-D-glucopyranoside (Glc-α-OMe), methyl-β-D-glucopyranoside (Glc-β-OMe), methyl-α-D-mannopyranoside (Man-α-OMe), methyl-β-D-mannopyranoside (Man-β-OMe), methyl-α-D-fucopyranoside (Fuc-α-OMe), methyl-β-D-fucopyranoside (Fuc-β-OMe), N-acetylgalactosamine (GalNAc), and N-acetylglucosamine ([…]). The disaccharides used were the following 5 types: lactose (Gal-β1,4-Glc), N-acetyllactosamine (Gal-β1,4-GlcNAc), methyl-β-D-galactopyranosyl-β1,3-N-acetylglucosaminide (Gal-β1,3-GlcNAc-β-OMe), methyl-α-D-galactopyranosyl-α1,3-galactopyranoside (Gal-α-1,3-Gal-α-OMe), and methyl-β-D-galactopyranosyl-β1,3-galactopyranoside (Gal-β1,3-Gal-β-OMe). The trisaccharide used was 2′-fucosyllactose (Fuc-α1,2-Galβ1,4-Glc). It should be noted that the final concentration was set to 8.4 mM for the sugar chains shown in Table 18, i.e., methyl-α-D-galactopyranosyl-α1,3-galactopyranoside (Gal-α1,3-Gal-α-OMe), methyl-β-D-galactopyranosyl-β1,3-galactopyranoside (Gal-β1,3-Gal-β-OMe) and 2′-fucosyllactose (Fuc-α1,2-Gal-β1,4-Glc).
(§3) After completion of the enzymatic reaction, 1.98 ml of 5 mM phosphate buffer (pH 6.8) was added to the reaction solution to stop the enzymatic reaction. Then, the enzymatic reaction solution was diluted with 5 mM phosphate buffer (pH 6.8) and applied in a volume of 2 ml to a AG1−×2 Resin (PO4^3− form, 0.2×2 cm) column. This column was prepared as follows: AG1-x 2 Resin (OH^− form, BIO-RAD) was suspended in 1 M phosphate buffer (pH 6.8), and after 30 minutes, the resin was washed with distilled water and then suspended in distilled water. The eluate (0 to 2 ml) from this column was measured for its radioactivity. The eluate from this column contains the unreacted glycosyl acceptor substrate and the ^14C-NeuAc (N-acetylneuraminic acid)-bound reaction product which was generated by the reaction, but unreacted CMP-14C-NeuAc is still retained on the column. Thus, the radioactivity of ^14C from each sialic acid-containing sugar chain generated as a result of the enzymatic reaction arises exclusively from the reaction product, so that the radioactivity of this fraction can be used to calculate the enzyme activity.
(§4) In the manner described above, the radioactivity of NeuAc transferred to each glycosyl acceptor substrate was measured to calculate the amount of transferred sialic acid.

[2] = test system: ISH224-N1C0 recombinant β-galactoside-α2,3-sialyltransferase; experiment: Acceptor substrate specificity of recombinant β-galactoside-α2,3-sialyltransferase (mono-, di-, trisaccharides); assay type: biochemical, Photobacterium sp.
Source text: as §1, §2, §3, §4

[3] = test system: ISH467-N2C0 recombinant β-galactoside-α2,3-sialyltransferase; experiment: as above; assay type: biochemical, Photobacterium phosphoreum
Source text: as §1, §2, §3, §4

[4] = test system: α2,3-sialyltransferase derived from strain JT-ISH-467; experiment: Sialic acid transfer to monosaccharides and disaccharides by partially purified α2,3-sialyltransferase (CMP-14C-NeuAc donor, radioactivity of column eluate); assay type: biochemical, Photobacterium phosphoreum; conditions: 25° C., 4 hours, acceptor 10 μmol (200 mM), CMP-14C-NeuAc 400 nmol, sialyltransferase 0.13 mU, NaCl 500 mM
Protocol: A cell homogenate prepared from the strain JT-ISH-467 was partially purified by ion exchange chromatography, hydroxyapatite chromatography, and gel filtration chromatography. The thus partially purified α2,3-sialyltransferase was used in the following experiment in order to confirm the transfer of sialic acid to various monosaccharides and disaccharides.
The enzymatic reaction was carried out at 25° C. for 4 hours in a reaction solution (24 μl) prepared to contain CMP-^14C-NeuAc as a glycosyl donor substrate (400 nmol (15600 cpm), final concentration in the reaction solution: 16.6 mM), any of various glycosyl acceptor substrates (10 μmol, final concentration in the reaction solution: 200 mM), sialyltransferase (0.13 mU) and NaCl (final concentration in the reaction solution: 500 mM). The monosaccharides and disaccharides used as glycosyl acceptor substrates were the following 6 substances: methyl-α-D-galactopyranoside (Gal-α-OMe), methyl-β-D-galactopyranoside (Gal-β-OMe), N-acetylgalactosamine (GalNAc), lactose (Gal-β1,4-Glc), N-acetyllactosamine (Gal-β1,4-GlcNAc), and methyl-β-D-galactopyranosyl-β-1,3-N-acetylglucosaminide (Gal-β1,3-GlcNAc-β-OMe).
as §3, with “AG1-×2” for “AG1−×2”, “AG1-×2” for “AG1-x 2”, “CMP-^14C-NeuAc” for “CMP-14C-NeuAc”
as §4

[5] = Table 16: 1 μmol acceptor, pH 5.0, about 2.5 mU enzyme, 20° C., 14 hours
[6] = Table 16: activity toward lactose set to 100, 20° C., 14 hours
[7] = Table 17: 1 μmol acceptor, pH 5.0, 1.0 mU per reaction, 30° C., 0.5 minutes or 2 minutes
[8] = Table 17: activity toward lactose set to 100, 30° C., 0.5 minutes or 2 minutes
[9] = Table 17: 1 μmol acceptor, pH 5.0, 2.3 mU per reaction, 30° C., 0.5 minutes or 2 minutes
[10] = Table 18: activity toward lactose set to 100, 0.2 μmol acceptor, 30° C., 2 minutes

SMILES	FAJ-N1C0 Sialyltransferase activity [1]	FAJ-N1C0 Sialyltransferase activity Relative activity (%) [1]	ISH224-N1C0 Sialyltransferase activity [2, 5]	ISH224-N1C0 Sialyltransferase activity Relative activity (%) [2, 6]	ISH224-N1C0 Sialyltransferase activity [2, 7]	ISH224-N1C0 Sialyltransferase activity Relative activity (%) [2, 8]	ISH467-N2C0 Sialyltransferase activity [3, 5]	ISH467-N2C0 Sialyltransferase activity Relative activity (%) [3, 6]	ISH467-N2C0 Sialyltransferase activity [3, 9]	ISH467-N2C0 Sialyltransferase activity Relative activity (%) [3, 8]	Amount of transferred sialic acid [4]	Amount of transferred sialic acid ([4]; listed as Gal-β1,4-GlcNAc)	ISH224-N1C0 Sialyltransferase activity ([2]; Table 18: 0.2 μmol acceptor (8.4 mM), pH 5.0, 1.0 mU per reaction, 30° C., 2 minutes)	ISH224-N1C0 Sialyltransferase activity Relative activity (%) [2, 10]	ISH467-N2C0 Sialyltransferase activity ([3]; Table 18: 0.2 μmol acceptor (8.4 mM), pH 5.0, 23 mU per reaction, 30° C., 2 minutes)	ISH467-N2C0 Sialyltransferase activity Relative activity (%) [3, 10]
CO[C@@H]1O[C@H](CO)[C@H](O)[C@H](O)[C@H]1O [Methylβgalactopyranoside, methyl-β-D-galactopyranoside]	8.7 nmol/min	114%	8.9 nmol/min	105%	3.54 nmol/min	343%	9.1 nmol/min	116%	5.77 nmol/min	251%	50.2 nmol					
CO[C@H]1O[C@H](CO)[C@H](O)[C@H](O)[C@H]1O [Methylαgalactopyranoside, methyl-α-D-galactopyranoside]	10.3 nmol/min	135%	9.5 nmol/min	113%	8.49 nmol/min	823%	10.5 nmol/min	134%	10.38 nmol/min	452%	60.0 nmol					
CO[C@@H]1O[C@H](CO)[C@@H](O)[C@H](O[C@@H]2O[C@H](CO)[C@H](O)[C@H](O)[C@H]2O)[C@H]1NC(C)=O [methyl-β-D-galactopyranosyl-β1,3-N-acetylglucosaminide]	9.4 nmol/min	124%	9.4 nmol/min	111%	1.98 nmol/min	192%	9.6 nmol/min	122%	2.95 nmol/min	129%	71.1 nmol					
CC(=O)N[C@H]1C(O)O[C@H](CO)[C@@H](O[C@@H]2O[C@H](CO)[C@H](O)[C@H](O)[C@H]2O)[C@@H]1O (stereo partly drawn) [Lactosamine, N-acetyllactosamine]	9.6 nmol/min	127%	9.7 nmol/min	115%	0.99 nmol/min	96%	9.2 nmol/min	118%	2.36 nmol/min	103%	highest in amount of transferred sialic acid	74.9 nmol				
OC[C@H]1O[C@@H](O[C@H]2[C@H](O)[C@@H](O)C(O)O[C@@H]2CO)[C@H](O)[C@@H](O)[C@H]1O (stereo partly drawn) [Lactose, lactose]	7.6 nmol/min	100%	8.4 nmol/min	100%	1.03 nmol/min	100%	7.8 nmol/min	100%	2.29 nmol/min	100%	57.9 nmol		1.51 nmol/min	100%	1.64 nmol/min	100%
